According to patent US20230312556A1, “ARYLAMIDE COMPOUND, PHARMACEUTICAL COMPOSITION COMPRISING SAME, AND PREPARATION METHOD THEREFOR AND USE THEREOF” (SICHUAN KELUN-BIOTECH BIOPHARMACEUTICAL CO., LTD., priority 2020, published 2023):

Tests used:
[1] = tested on: human hepatocellular carcinoma cell HepG2 (NRAS-Q61K mutation); test: Cancer cell proliferation inhibition assay, HepG2; type: cell-based; details: 72 h incubation, Cell Titer Glo
Text: (§1) The inhibitory effects of the compounds of the present invention on cancer cell proliferation were further evaluated by testing the effects of the compounds of the present invention on the growth of cancer cells.
(§2) In this example, human melanoma cell A375 (BRAF-V600E mutation, purchased from the Cell Bank of the Chinese Academy of Sciences) and human hepatocellular carcinoma cell HepG2 (NRAS-Q61K mutation, purchased from ATCC, USA) were employed.
(§3) In this example, the test compounds at various concentrations (100000 nM, 30000 nM, 10000 nM, 3000 nM, 1000 nM, 300 nM, 100 nM, 30 nM, 10 nM) were added to the above cells, and the incubation was performed for 72 h. The inhibitory activity of the compounds was tested by measuring ATP in living cells using the Cell Titer Glo Kit (Promega).
(§4) The IC50 values of the compounds of the present invention for each tested cell were determined, and the test results are as follows: […]

[2] = tested on: human melanoma cell A375 (BRAF-V600E mutation); test: Cancer cell proliferation inhibition assay, A375; type: cell-based; details: A-375, 72 h incubation, Cell Titer Glo
Text: as §1, §2, §3, §4

| SMILES | IC50 [1] [nM] | IC50 [2] [nM] |
| --- | --- | --- |
| Cc1ccc2c(Nc3cccc(Cl)c3)nccc2c1NC(=O)c1cnc2c(N)ncnn12 [Compound 12, 4-amino-N-(1-((3-chlorophenyl)amino)-6-methylisoquinolin-5-yl)imidazo[2,1-f][1,2,4]triazine-7-carboxamide] | 13.9 ± 1.7 |  |
| Cc1ccc2c(C(O)c3ccccc3Cl)nccc2c1NC(=O)c1cccc2c(N)ncnc12 (stereo not drawn) [Compound 24, 4-amino-N-(1-((2-chlorophenyl)(hydroxy)methyl)-6-methylisoquinolin-5-yl)quinazoline-8-carboxamide] |  | 70.7 ± 6.15 |
| Cc1ccc2c(Nc3cccc(Cl)c3F)nccc2c1NC(=O)c1cnc2c(N)ncnn12 [Compound 30, 4-amino-N-(1-((3-chloro-2-fluorophenyl)amino)-6-methylisoquinolin-5-yl)imidazo[2,1-f][1,2,4]triazine-7-carboxamide] | 13.3 ± 0.9 | 89.3 ± 11.3 |
| Cc1cc(C(=O)Nc2c(C)ccc3c(Nc4cccc(Cl)c4F)nccc23)c2ncnc(N)c2c1 [Compound 45, 4-amino-N-(1-((3-chloro-2-fluorophenyl)amino)-6-methylisoquinolin-5-yl)-6-methylquinazoline-8-carboxamide] | 64.3 ± 5.08 | 74.2 ± 3.5 |
| Cc1ccc2c(Nc3cccc(Cl)c3F)nccc2c1NC(=O)c1cc(N2CCOCC2)cc2c(N)ncnc12 [Compound 53, 4-amino-N-(1-((3-chloro-2-fluorophenyl)amino)-6-methylisoquinolin-5-yl)-6-morpholinoquinazoline-8-carboxamide] | 113 ± 3.35 | 77.7 ± 2.3 |
| Cc1ccc2c(Nc3cccc(Cl)c3F)nccc2c1NC(=O)c1cc(N2CCN(C)CC2)cc2c(N)ncnc12 [Compound 54, 4-amino-N-(1-((3-chloro-2-fluorophenyl)amino)-6-methylisoquinolin-5-yl)-6-(4-methylpiperazin-1-yl)quinazoline-8-carboxamide] | 95.6 ± 8.18 | 108 ± 19.9 |
| Cc1ccc2c(Nc3ccc(Cl)cc3F)nccc2c1NC(=O)c1cnc2c(N)ncnn12 [Compound 55, 4-amino-N-(1-((4-chloro-2-fluorophenyl)amino)-6-methylisoquinolin-5-yl)imidazo[2,1-f][1,2,4]triazine-7-carboxamide] | 30.4 ± 4.3 |  |
| COc1ccc(Nc2nccc3c(NC(=O)c4cnc5c(N)ncnn45)c(C)ccc23)cc1Cl [Compound 56, 4-amino-N-(1-((3-chloro-4-methoxyphenyl)amino)-6-methylisoquinolin-5-yl)imidazo[2,1-f][1,2,4]triazine-7-carboxamide] | 22.2 ± 2.9 | 67 ± 7.3 |
| COc1ccc(Nc2nccc3c(NC(=O)c4cccc5c(N)ncnc45)c(C)ccc23)cc1 [Compound 57, 4-amino-N-(1-((4-methoxyphenyl)amino)-6-methylisoquinolin-5-yl)quinazoline-8-carboxamide] | 24.3 ± 3.3 | 66.1 ± 17 |
| Cc1ccc2c(Nc3ccc(N(C)C)nc3)nccc2c1NC(=O)c1cccc2c(N)ncnc12 [Compound 59, 4-amino-N-(1-((6-(dimethylamino)pyridin-3-yl)amino)-6-methylisoquinolin-5-yl)quinazoline-8-carboxamide] | 211 ± 16.6 | 85 ± 5.2 |
| COc1ccc(Nc2nccc3c(NC(=O)c4cnc5c(N)ncnn45)c(C)ccc23)c(F)c1 [Compound 61, 4-amino-N-(1-((2-fluoro-4-methoxyphenyl)amino)-6-methylisoquinolin-5-yl)imidazo[2,1-f][1,2,4]triazine-7-carboxamide] | 21.3 ± 4.88 | 141 ± 4.88 |
| Cc1ccc2c(Nc3ccc(CN(C)C)c(C(F)(F)F)c3)nccc2c1NC(=O)c1cnc2c(N)ncnn12 [Compound 62, 4-amino-N-(1-((4-((dimethylamino)methyl)-3-(trifluoromethyl)phenyl)amino)-6-methylisoquinolin-5-yl)imidazo[2,1-f][1,2,4]triazine-7-carboxamide] | 82.2 ± 10.1 | 49.1 ± 2.74 |
| CC(=O)c1ccc(Nc2nccc3c(NC(=O)c4cccc5c(N)ncnc45)c(C)ccc23)cc1 [Compound 63, N-(1-((4-acetylphenyl)amino)-6-methylisoquinolin-5-yl)-4-aminoquinazoline-8-carboxamide] | 28.6 ± 2.7 | 46.3 ± 1.79 |
| Cc1ccc2c(Nc3ccc(Cl)c(CN(C)C)c3)nccc2c1NC(=O)c1cccc2c(N)ncnc12 [Compound 64, 4-amino-N-(1-((4-chloro-3-((dimethylamino)methyl)phenyl)amino)-6-methylisoquinolin-5-yl)quinazoline-8-carboxamide] | 75.2 ± 6.9 | 70.3 ± 8.5 |
| Cc1ccc(Nc2nccc3c(NC(=O)c4cccc5c(N)ncnc45)c(C)ccc23)cc1 [Compound 65, 4-amino-N-(6-methyl-1-(p-tolylamino)isoquinolin-5-yl)quinazoline-8-carboxamide] | 38.8 ± 3 | 47.1 ± 9.4 |
| Cc1ccc2c(Nc3cccc(Cl)c3F)nccc2c1NC(=O)c1nccc2c(N)ncnc12 [Compound 66, 4-amino-N-(1-((3-chloro-2-fluorophenyl)amino)-6-methylisoquinolin-5-yl)pyrido[3,4-d]pyrimidine-8-carboxamide] | 46.1 ± 9.6 | 166 ± 6.1 |
| COc1ccc(Nc2nccc3c(NC(=O)c4cccc5c(N)ncnc45)c(C)ccc23)cc1OC [Compound 68, 4-amino-N-(1-((3,4-dimethoxyphenyl)amino)-6-methylisoquinolin-5-yl)quinazoline-8-carboxamide] | 109 ± 12.2 | 104 ± 20.6 |
| Cc1ccc2c(Nc3cccc(Cl)c3F)nccc2c1NC(=O)c1cncc2c(N)ncnc12 [Compound 69, 4-amino-N-(1-((3-chloro-2-fluorophenyl)amino)-6-methylisoquinolin-5-yl)pyrido[4,3-d]pyrimidine-8-carboxamide] | 49.6 ± 9.7 | 94.6 ± 4 |
| Cc1ccc2c(Nc3cc(F)ccc3F)nccc2c1NC(=O)c1cccc2c(N)ncnc12 [Compound 72, 4-amino-N-(1-((2,5-difluorophenyl)amino)-6-methylisoquinolin-5-yl)quinazoline-8-carboxamide] | 64.3 ± 12.3 |  |
| Cc1ccc2c(Nc3cccc(Cl)c3F)nccc2c1NC(=O)c1ccnc2c(N)ncnc12 [Compound 81, 4-amino-N-(1-((3-chloro-2-fluorophenyl)amino)-6-methylisoquinolin-5-yl)pyrido[3,2-d]pyrimidine-8-carboxamide] | 222 ± 29.8 |  |
| Cc1ccc2c(Nc3c(F)c(F)cc(F)c3F)nccc2c1NC(=O)c1cccc2c(N)ncnc12 [Compound 95, 4-amino-N-(6-methyl-1-((2,3,5,6-tetrafluorophenyl)amino)isoquinolin-5-yl)quinazoline-8-carboxamide] | 69 ± 18.9 |  |
| Cc1ccc2c(Nc3cc(F)c(F)c(F)c3F)nccc2c1NC(=O)c1cccc2c(N)ncnc12 [Compound 96, 4-amino-N-(6-methyl-1-((2,3,4,5-tetrafluorophenyl)amino)isoquinolin-5-yl)quinazoline-8-carboxamide] | 119 ± 29.3 |  |
| Cc1ccc2c(Nc3cccc(OCCN4CCOCC4)c3F)nccc2c1NC(=O)c1cccc2c(N)ncnc12 [Compound 98, 4-amino-N-(1-((2-fluoro-3-(2-morpholinoethoxy)phenyl)amino)-6-methylisoquinolin-5-yl)quinazoline-8-carboxamide] | 63.7 ± 4.4 |  |
| Cc1ccc2c(Nc3cccc(Cl)c3F)nccc2c1NC(=O)c1cn(C)c2c(N)ncnc12 [Compound 101, 4-amino-N-(1-((3-chloro-2-fluorophenyl)amino)-6-methylisoquinolin-5-yl)-5-methyl-5H-pyrrolo[3,2-d]pyrimidine-7-carboxamide] | 81.1 ± 4.5 |  |
